Data as given in US9802937B2, “Substituted pyrazolo{4,3-D}pyrimidines as kinase inhibitors” (ORIGENIS GMBH, priority 2011, dated 2017).

How the values were obtained:
[1] = biological target: T1, SYK kinase (Homo sapiens, UniProt P43405); assay: SYK Assay (OMNIA KINASE ASSAY, SOX peptide fluorescence); assay type: biochemical; details: apparent Ki calculated from the IC50 using the Cheng-Prusoff equation; 1 mM ATP, 30° C.; read-out: SYK Activities: Ki
T1 construct: purchased Invitrogen, Carlsbad
Outline: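 Apparent Ki values are derived by Cheng-Prusoff from IC50s of sigmoidal fits of reaction rate against compound concentration. Rates come from chelation-enhanced SOX fluorescence (λex 360/λem 485 nm, read every 30 s over 30 min) as the kinase phosphorylates 10 µM Omnia Tyr 7 peptide at 30 °C, with 1 mM ATP and 0.2 mM DTT.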

[2] = biological target: LRRK2 (Homo sapiens, UniProt Q5S007); assay: LRRK2-LRRK2 G2019S-Assay (LanthaScreen Eu Kinase Binding Assay); details: 5 nM LRRK2 or their mutants, 10 nM tracer 236, RT 1 h; read-out: LRRK2 Activities: IC50
Sequence of LRRK2 (Q5S007 970-2527 limits assumed): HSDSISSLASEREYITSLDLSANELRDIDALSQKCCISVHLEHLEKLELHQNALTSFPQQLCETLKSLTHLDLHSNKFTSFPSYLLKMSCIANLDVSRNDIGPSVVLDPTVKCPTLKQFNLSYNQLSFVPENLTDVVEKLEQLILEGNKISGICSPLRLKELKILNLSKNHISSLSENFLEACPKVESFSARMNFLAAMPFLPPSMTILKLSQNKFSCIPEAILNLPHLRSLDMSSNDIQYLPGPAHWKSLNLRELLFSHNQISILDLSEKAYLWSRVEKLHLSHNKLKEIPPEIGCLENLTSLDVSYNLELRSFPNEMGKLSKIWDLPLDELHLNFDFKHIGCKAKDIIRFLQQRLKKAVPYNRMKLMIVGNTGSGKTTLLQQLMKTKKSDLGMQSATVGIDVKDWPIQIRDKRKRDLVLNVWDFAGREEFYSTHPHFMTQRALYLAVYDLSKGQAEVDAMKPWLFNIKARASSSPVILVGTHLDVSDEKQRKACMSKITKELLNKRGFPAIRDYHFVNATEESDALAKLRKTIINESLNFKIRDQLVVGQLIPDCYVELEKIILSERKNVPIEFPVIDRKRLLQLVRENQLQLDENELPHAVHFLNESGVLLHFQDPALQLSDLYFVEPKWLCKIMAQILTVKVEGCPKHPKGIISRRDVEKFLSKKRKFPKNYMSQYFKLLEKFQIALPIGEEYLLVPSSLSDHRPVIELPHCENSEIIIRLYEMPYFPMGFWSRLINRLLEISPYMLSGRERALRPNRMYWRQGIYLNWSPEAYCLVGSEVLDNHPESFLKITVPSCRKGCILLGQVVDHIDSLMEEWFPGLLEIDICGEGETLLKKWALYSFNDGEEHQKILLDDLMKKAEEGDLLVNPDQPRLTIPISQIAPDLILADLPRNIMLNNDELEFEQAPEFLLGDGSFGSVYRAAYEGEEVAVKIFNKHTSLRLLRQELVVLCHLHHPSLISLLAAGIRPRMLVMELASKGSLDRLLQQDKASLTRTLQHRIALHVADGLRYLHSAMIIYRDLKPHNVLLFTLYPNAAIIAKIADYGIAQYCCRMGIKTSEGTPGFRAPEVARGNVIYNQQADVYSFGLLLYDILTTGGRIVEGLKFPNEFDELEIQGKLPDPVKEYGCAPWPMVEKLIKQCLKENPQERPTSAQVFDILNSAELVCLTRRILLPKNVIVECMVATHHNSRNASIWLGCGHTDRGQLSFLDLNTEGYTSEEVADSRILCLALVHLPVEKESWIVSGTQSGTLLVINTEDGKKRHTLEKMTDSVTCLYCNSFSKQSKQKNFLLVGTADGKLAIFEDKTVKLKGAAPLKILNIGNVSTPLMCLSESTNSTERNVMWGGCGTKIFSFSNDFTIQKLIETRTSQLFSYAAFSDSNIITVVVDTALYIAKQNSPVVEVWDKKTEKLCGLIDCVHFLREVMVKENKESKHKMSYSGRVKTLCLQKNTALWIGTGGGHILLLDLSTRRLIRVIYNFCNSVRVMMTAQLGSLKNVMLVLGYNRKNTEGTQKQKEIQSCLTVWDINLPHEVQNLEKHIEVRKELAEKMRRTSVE
Outline: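 Kinase (wild type or mutant, 5 nM) mixed with Eu-anti-GST antibody (2 nM), then 10 nM Alexa Fluor 647 tracer 236 added. After 1 h at room temperature, the acceptor/donor (665/615 nm) FRET ratio was measured. IC50 was fitted from concentration–ratio curves.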

[3] = biological target: MYLK (Homo sapiens, UniProt Q15746); assay: MYLK Assay (LanthaScreen Eu Kinase Binding Assay); details: 5 nM MYLK, 30 nM tracer 236, RT 1 h; read-out: MYLK Activities: IC50
Sequence of MYLK (Q15746 whole entry): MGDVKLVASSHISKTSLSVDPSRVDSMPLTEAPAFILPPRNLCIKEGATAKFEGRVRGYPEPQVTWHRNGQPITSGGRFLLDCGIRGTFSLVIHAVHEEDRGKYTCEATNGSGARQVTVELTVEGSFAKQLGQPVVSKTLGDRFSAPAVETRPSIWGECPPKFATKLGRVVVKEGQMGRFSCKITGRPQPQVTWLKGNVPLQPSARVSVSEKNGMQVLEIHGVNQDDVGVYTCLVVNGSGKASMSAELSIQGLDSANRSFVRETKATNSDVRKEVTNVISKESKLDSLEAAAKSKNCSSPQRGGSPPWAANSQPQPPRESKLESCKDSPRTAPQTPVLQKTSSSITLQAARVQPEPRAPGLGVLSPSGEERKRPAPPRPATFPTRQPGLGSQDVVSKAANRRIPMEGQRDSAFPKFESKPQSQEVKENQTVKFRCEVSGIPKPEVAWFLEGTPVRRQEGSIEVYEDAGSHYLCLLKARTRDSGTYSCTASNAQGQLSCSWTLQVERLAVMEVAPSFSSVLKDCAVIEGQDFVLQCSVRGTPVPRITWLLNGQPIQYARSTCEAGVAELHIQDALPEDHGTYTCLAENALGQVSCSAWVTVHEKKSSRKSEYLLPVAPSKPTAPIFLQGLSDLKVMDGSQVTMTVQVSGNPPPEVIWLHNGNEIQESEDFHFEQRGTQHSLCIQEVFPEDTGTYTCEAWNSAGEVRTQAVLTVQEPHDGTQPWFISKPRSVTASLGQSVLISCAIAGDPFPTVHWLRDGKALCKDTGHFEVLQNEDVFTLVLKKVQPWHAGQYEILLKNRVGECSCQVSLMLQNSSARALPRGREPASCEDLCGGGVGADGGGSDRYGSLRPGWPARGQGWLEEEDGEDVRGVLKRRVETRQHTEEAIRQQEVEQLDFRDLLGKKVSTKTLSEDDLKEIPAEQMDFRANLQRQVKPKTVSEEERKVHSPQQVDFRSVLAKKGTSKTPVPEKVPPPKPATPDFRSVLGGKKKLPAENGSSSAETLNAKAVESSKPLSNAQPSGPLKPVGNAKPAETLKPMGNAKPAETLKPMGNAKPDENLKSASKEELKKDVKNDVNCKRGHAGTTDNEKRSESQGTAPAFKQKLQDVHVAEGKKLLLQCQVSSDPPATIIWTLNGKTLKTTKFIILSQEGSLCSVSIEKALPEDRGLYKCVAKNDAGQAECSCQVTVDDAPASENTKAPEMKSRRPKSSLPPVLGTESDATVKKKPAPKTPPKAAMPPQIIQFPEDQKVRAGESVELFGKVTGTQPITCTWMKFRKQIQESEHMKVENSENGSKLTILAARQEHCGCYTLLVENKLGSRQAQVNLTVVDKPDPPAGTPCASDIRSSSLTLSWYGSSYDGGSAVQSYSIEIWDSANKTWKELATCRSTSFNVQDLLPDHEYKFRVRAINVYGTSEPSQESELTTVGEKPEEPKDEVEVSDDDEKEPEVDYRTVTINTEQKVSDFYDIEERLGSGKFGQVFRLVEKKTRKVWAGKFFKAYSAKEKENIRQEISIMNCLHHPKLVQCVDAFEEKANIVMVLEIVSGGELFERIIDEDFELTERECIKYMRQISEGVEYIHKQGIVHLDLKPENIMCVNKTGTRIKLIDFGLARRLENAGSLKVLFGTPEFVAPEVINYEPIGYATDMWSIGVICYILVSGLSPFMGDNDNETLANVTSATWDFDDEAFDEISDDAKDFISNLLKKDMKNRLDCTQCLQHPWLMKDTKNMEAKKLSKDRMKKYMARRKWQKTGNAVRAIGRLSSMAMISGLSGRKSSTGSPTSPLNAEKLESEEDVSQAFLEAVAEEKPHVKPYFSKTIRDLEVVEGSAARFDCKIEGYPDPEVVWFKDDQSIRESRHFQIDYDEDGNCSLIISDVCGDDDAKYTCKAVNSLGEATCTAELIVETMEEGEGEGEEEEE
Method: In the assay LanthaScreen™ Eu Kinase Binding Assay by Invitrogen Corporation (Carlsbad) the effect of invention of a compound on the phosphorylation is determined by measurement of fluorescence intensity emission ratio based on the binding and displacement of a proprietary, Alexa Fluor® 647-labeled, ATP-competitive kinase inhibitor scaffold (kinase tracer) to the kinase of interest as described above.
To the wells of an 384 well small volume plate (Greiner, Frickenhausen) are added (i) the compound under test in 5% is DMSO/distilled water (5 μl), (ii) 5 μl of the kinase antibody mixture resulting in a final concentration 5 nM MYLK, 2 nM EU-Anti-GST antibody in 1× kinase buffer A. The reaction was started with addition of (iii) 5 μl resulting in a final concentration of 30 nM tracer 236. The assay plate was incubated at RT for 1 h and fluorescence intensity readings were collected using a TECAN M1000 at two wavelengths of λex 340/λem 615 nm and λex 340/λem 665 nm with a delay time of 100 μs and an integration time of 200 μs after 60 minutes. The emission ratio was calculated by division of the acceptor/tracer emission ([…]) by the antibody/donor emission ([…]). The inhibitor concentration was plotted versus the emission ratio to determine the IC50 using XLFit 5.0 (IDBS, Guildford) to fit to a sigmoidal dose response curve with a variable slope.

| Compound | Ki [1] [nM] | IC50 [2] [nM] | IC50 [3] [nM] |
| --- | --- | --- | --- |
| COc1cc(C(=O)N2CCC(N3CCN(C)CC3)CC2)ccc1Nc1nc(-c2cccs2)nc2cn[nH]c12 [Example #139, (3-methoxy-4-((5-(thiophen-2-yl)-1H-pyrazolo[4,3-d]pyrimidin-7-yl)amino)phenyl)(4-(4-methylpiperazin-1-yl)piperidin-1-yl)methanone] | 10 to 100 | 10 to 100 | < 5000 |
| CN1CCN(C(=O)c2ccc(Nc3nc(-c4ccsc4)nc4cn[nH]c34)cc2)CC1 [Example #147, (4-methylpiperazin-1-yl)(4-((5-(thiophen-3-yl)-1H-pyrazolo[4,3-d]pyrimidin-7-yl)amino)phenyl)methanone] | 10 to 100 | 10 to 100 | < 5000 |
| NS(=O)(=O)c1cccc(-c2nc(Nc3ccc4c(c3)NC(=O)CC4)c3[nH]ncc3n2)c1 [Example #238, 3-(7-((2-oxo-1,2,3,4-tetrahydroquinolin-7-yl)amino)-1H-pyrazolo[4,3-d]pyrimidin-5-yl)benzenesulfonamide] | < 10 | 10 to 100 | < 5000 |
| COc1cc(Nc2nc(-c3cccc(S(N)(=O)=O)c3)nc3cn[nH]c23)ccc1N1CCOCC1 [Example #240, 3-(7-((3-methoxy-4-morpholinophenyl)amino)-1H-pyrazolo[4,3-d]pyrimidin-5-yl)benzenesulfonamide] | < 10 | 100 to 1000 | < 5000 |
| c1cc(N2CCOCC2)ccc1Nc1nc(-c2ccc3cn[nH]c3c2)nc2cn[nH]c12 [Example #247, 5-(1H-indazol-6-yl)-N-(4-morpholinophenyl)-1H-pyrazolo[4,3-d]pyrimidin-7-amine] | < 10 | < 10 | < 5000 |
| CN1CCN(c2ccc(Nc3nc(-c4ccc5cn[nH]c5c4)nc4cn[nH]c34)cc2)CC1 [Example #248, 5-(1H-indazol-6-yl)-N-(4-(4-methylpiperazin-1-yl)phenyl)-1H-pyrazolo[4,3-d]pyrimidin-7-amine] | < 10 | 100 to 1000 | < 5000 |
| CS(=O)(=O)c1cccc(Nc2nc(-c3cccs3)nc3cn[nH]c23)c1 [Example #254, N-(3-(methylsulfonyl)phenyl)-5-(thiophen-2-yl)-1H-pyrazolo[4,3-d]pyrimidin-7-amine] | 10 to 100 | 100 to 1000 | < 5000 |
| C[S+]([O-])c1cccc(Nc2nc(-c3cccs3)nc3cn[nH]c23)c1 (stereo not drawn) [Example #268, N-(3-(methylsulfinyl)phenyl)-5-(thiophen-2-yl)-1H-pyrazolo[4,3-d]pyrimidin-7-amine] | 10 to 100 | 100 to 1000 | < 5000 |
| CN1CCN(c2ccc(Nc3nc(-c4ccccc4F)nc4cn[nH]c34)cc2)CC1 [Example #275, 5-(2-fluorophenyl)-N-(4-(4-methylpiperazin-1-yl)phenyl)-1H-pyrazolo[4,3-d]pyrimidin-7-amine] | < 10 | 100 to 1000 | < 5000 |
| Fc1ccccc1-c1nc(Nc2ccc(N3CCN(C4CC4)CC3)cc2)c2[nH]ncc2n1 [Example #279, N-(4-(4-cyclopropylpiperazin-1-yl)phenyl)-5-(2-fluorophenyl)-1H-pyrazolo[4,3-d]pyrimidin-7-amine] | 10 to 100 | 100 to 1000 | < 5000 |
| COc1ccc(Nc2nc(-c3ccc4cn[nH]c4c3)nc3cn[nH]c23)cc1OC [Example #280, N-(3,4-dimethoxyphenyl)-5-(1H-indazol-6-yl)-1H-pyrazolo[4,3-d]pyrimidin-7-amine] | < 10 | 10 to 100 | < 5000 |
| CN1CCN(C2CCN(c3ccc(Nc4nc(-c5c(F)cccc5F)nc5cn[nH]c45)cc3)CC2)CC1 [Example #284, 5-(2,6-difluorophenyl)-N-(4-(4-(4-methylpiperazin-1-yl)piperidin-1-yl)phenyl)-1H-pyrazolo[4,3-d]pyrimidin-7-amine] | 10 to 100 | 100 to 1000 | < 5000 |

Results, then the compound that gave them:

| Ki [1] [nM] | IC50 [2] [nM] | IC50 [3] [nM] | Compound |
| --- | --- | --- | --- |
| < 10 | 10 to 100 | < 5000 | O=S1(=O)CCN(c2ccc(Nc3nc(-c4ccsc4)nc4cn[nH]c34)cc2)CC1 [Example #143, 4-(4-((5-(thiophen-3-yl)-1H-pyrazolo[4,3-d]pyrimidin-7-yl)amino)phenyl)thiomorpholine 1,1-dioxide] |
| < 10 | < 10 | < 5000 | CC(=O)N1CCN(c2ccc(Nc3nc(-c4ccsc4)nc4cn[nH]c34)cc2)CC1 [Example #144, 1-(4-(4-((5-(thiophen-3-yl)-1H-pyrazolo[4,3-d]pyrimidin-7-yl)amino)phenyl)piperazin-1-yl)ethan-1-one] |
| < 10 | 10 to 100 | < 5000 | CC(C)(C)N1CCN(c2ccc(Nc3nc(-c4ccsc4)nc4cn[nH]c34)cc2)CC1 [Example #161, N-(4-(4-(tert-butyl)piperazin-1-yl)phenyl)-5-(thiophen-3-yl)-1H-pyrazolo[4,3-d]pyrimidin-7-amine] |
| < 10 | 100 to 1000 | < 5000 | CC(C)(C)N1CCN(c2ccc(Nc3nc(-c4cccs4)nc4cn[nH]c34)cc2)CC1 [Example #163, N-(4-(4-(tert-butyl)piperazin-1-yl)phenyl)-5-(thiophen-2-yl)-1H-pyrazolo[4,3-d]pyrimidin-7-amine] |
| < 10 | 100 to 1000 | < 5000 | COc1ccc(-c2nc(Nc3ccc(N4CCN(C(C)(C)C)CC4)cc3)c3[nH]ncc3n2)cc1 [Example #172, N-(4-(4-(tert-butyl)piperazin-1-yl)phenyl)-5-(4-methoxyphenyl)-1H-pyrazolo[4,3-d]pyrimidin-7-amine] |
| < 10 | 100 to 1000 | < 5000 | CN1CCN(c2ccc(Nc3nc(-c4nccs4)nc4cn[nH]c34)cc2)CC1 [Example #179, N-(4-(4-methylpiperazin-1-yl)phenyl)-5-(thiazol-2-yl)-1H-pyrazolo[4,3-d]pyrimidin-7-amine] |
| < 10 | 10 to 100 | < 5000 | CN1CCN(c2ccc(Nc3nc(-c4cccc(S(N)(=O)=O)c4)nc4cn[nH]c34)cc2)CC1 [Example #182, 3-(7-((4-(4-methylpiperazin-1-yl)phenyl)amino)-1H-pyrazolo[4,3-d]pyrimidin-5-yl)benzenesulfonamide] |
| < 10 | 100 to 1000 | < 5000 | CN1CCN(c2ccc(Nc3nc(-c4cccc(NS(C)(=O)=O)c4)nc4cn[nH]c34)cc2)CC1 [Example #187, N-(3-(7-((4-(4-methylpiperazin-1-yl)phenyl)amino)-1H-pyrazolo[4,3-d]pyrimidin-5-yl)phenyl)methanesulfonamide] |
| < 10 | 100 to 1000 | < 5000 | CS(=O)(=O)Nc1cccc(-c2nc(Nc3ccc(N4CCNCC4)cc3)c3[nH]ncc3n2)c1 [Example #188, N-(3-(7-((4-(piperazin-1-yl)phenyl)amino)-1H-pyrazolo[4,3-d]pyrimidin-5-yl)phenyl)methanesulfonamide] |
| < 10 | 100 to 1000 | < 5000 | COc1ccc(Nc2nc(-c3cccc(NS(C)(=O)=O)c3)nc3cn[nH]c23)cc1OC [Example #189, N-(3-(7-((3,4-dimethoxyphenyl)amino)-1H-pyrazolo[4,3-d]pyrimidin-5-yl)phenyl)methanesulfonamide] |
| < 10 | 10 to 100 | < 5000 | CS(=O)(=O)Nc1cccc(-c2nc(Nc3ccc4c(c3)NC(=O)CC4)c3[nH]ncc3n2)c1 [Example #190, N-(3-(7-((2-oxo-1,2,3,4-tetrahydroquinolin-7-yl)amino)-1H-pyrazolo[4,3-d]pyrimidin-5-yl)phenyl)methanesulfonamide] |
| < 10 | 100 to 1000 | < 5000 | CC(=O)N1CCN(c2ccc(Nc3nc(-c4cccc(NS(C)(=O)=O)c4)nc4cn[nH]c34)cc2)CC1 [Example #191, N-(3-(7-((4-(4-acetylpiperazin-1-yl)phenyl)amino)-1H-pyrazolo[4,3-d]pyrimidin-5-yl)phenyl)methanesulfonamide] |
| < 10 | 100 to 1000 | < 5000 | CSc1cccc(-c2nc(Nc3ccc(N4CCN(C)CC4)cc3)c3[nH]ncc3n2)c1 [Example #225, N-(4-(4-methylpiperazin-1-yl)phenyl)-5-(3-(methylthio)phenyl)-1H-pyrazolo[4,3-d]pyrimidin-7-amine] |
